Drawing on patent US8426408B2, “Pyrimidine inhibitors of kinases” (AbbVie Inc., priority 2009, dated 2013), this text covers Ki, EC15 and IC50 for 21 compounds.

Where only a bound is given, the exact number is not on record here.

In one assay the target is T1, Aurora B (Homo sapiens, UniProt Q96GD4).
T1 construct: Active Aurora B enzyme (recombinant residues 1-344)
Briefly: Aurora B enzyme inhibition (time-resolved fluorescence, histone H3 peptide). In kind it is biochemical. To be noted: 1 mM ATP. The essentials:
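Recombinant Aurora B (residues 1-344) with GST-INCENP phosphorylated biotinylated histone H3 (1-21) peptide at 1 mM ATP in HEPES pH 7.4 with MgCl2, orthovanadate and Triton X-100 for 1 h. After EDTA stop, the phosphopeptide was detected by TR-FRET (Eu-cryptate anti-phospho-H3 / SA-APC, 665/615 nm ratio). IC50 from an exponential fit.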

A further assay deals with NCI-H1299 cells. Briefly: Induction of polyploidy in H1299. In kind it is cell-based, Human. To be noted: Homo sapiens; NCI-H1299, 48 hours; read-out: EC15 (concentration of inhibitor necessary to induce polyploidy in 15% of cells). Put shortly: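 NCI-H1299 cells in RPMI 1640/10% FCS were treated with inhibitor concentrations in duplicate for 48 h at 37 C, then formalin-fixed and Hoechst-stained. Nuclear area was measured by high-content imaging, with polyploid (≥4N) defined as >750 μ^2. EC15 was derived by least-squares fit of log dose-response.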

The next assay has as its target KDR (Homo sapiens, UniProt P35968). As to the kind of experiment: KDR cellular assay (KDR receptor phosphorylation ELISA). To be noted: KDR transfected 3T3 (embryonic mouse) cells, VEGF stimulated; read-out: IC50 inhibition of KDR phosphorylation. It counts as cell-based. More on the design: expressed in transfected cells; host or cells: 3T3 (embryonic mouse) cells. Put shortly: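 KDR-transfected mouse 3T3 cells treated 20 min at 37° C with half-log compound dilutions, then stimulated 10 min with VEGF (100 ng/ml solution). Lysates captured on anti-KDR plates; phosphorylation by biotin antibody/streptavidin-HRP ELISA at 450 nm. IC50 by non-linear regression.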
A general note: An ELISA detects its analyte on a solid surface through an enzyme-linked reagent.

T1 sequence (Q96GD4 whole entry, the tested form may be a part): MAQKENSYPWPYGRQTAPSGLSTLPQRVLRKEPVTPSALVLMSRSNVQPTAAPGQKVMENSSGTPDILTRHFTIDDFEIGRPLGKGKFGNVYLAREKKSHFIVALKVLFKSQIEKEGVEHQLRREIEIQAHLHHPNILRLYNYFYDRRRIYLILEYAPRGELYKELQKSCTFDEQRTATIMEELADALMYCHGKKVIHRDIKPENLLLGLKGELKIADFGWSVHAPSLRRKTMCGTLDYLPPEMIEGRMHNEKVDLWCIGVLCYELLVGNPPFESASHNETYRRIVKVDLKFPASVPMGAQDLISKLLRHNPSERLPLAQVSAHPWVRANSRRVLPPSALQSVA
T1 sequence (Q9NQS7 826-918 partner limits assumed): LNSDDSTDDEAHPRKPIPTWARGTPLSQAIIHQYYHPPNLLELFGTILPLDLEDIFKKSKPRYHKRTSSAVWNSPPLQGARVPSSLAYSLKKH
Chain of KDR (P35968 20-1356): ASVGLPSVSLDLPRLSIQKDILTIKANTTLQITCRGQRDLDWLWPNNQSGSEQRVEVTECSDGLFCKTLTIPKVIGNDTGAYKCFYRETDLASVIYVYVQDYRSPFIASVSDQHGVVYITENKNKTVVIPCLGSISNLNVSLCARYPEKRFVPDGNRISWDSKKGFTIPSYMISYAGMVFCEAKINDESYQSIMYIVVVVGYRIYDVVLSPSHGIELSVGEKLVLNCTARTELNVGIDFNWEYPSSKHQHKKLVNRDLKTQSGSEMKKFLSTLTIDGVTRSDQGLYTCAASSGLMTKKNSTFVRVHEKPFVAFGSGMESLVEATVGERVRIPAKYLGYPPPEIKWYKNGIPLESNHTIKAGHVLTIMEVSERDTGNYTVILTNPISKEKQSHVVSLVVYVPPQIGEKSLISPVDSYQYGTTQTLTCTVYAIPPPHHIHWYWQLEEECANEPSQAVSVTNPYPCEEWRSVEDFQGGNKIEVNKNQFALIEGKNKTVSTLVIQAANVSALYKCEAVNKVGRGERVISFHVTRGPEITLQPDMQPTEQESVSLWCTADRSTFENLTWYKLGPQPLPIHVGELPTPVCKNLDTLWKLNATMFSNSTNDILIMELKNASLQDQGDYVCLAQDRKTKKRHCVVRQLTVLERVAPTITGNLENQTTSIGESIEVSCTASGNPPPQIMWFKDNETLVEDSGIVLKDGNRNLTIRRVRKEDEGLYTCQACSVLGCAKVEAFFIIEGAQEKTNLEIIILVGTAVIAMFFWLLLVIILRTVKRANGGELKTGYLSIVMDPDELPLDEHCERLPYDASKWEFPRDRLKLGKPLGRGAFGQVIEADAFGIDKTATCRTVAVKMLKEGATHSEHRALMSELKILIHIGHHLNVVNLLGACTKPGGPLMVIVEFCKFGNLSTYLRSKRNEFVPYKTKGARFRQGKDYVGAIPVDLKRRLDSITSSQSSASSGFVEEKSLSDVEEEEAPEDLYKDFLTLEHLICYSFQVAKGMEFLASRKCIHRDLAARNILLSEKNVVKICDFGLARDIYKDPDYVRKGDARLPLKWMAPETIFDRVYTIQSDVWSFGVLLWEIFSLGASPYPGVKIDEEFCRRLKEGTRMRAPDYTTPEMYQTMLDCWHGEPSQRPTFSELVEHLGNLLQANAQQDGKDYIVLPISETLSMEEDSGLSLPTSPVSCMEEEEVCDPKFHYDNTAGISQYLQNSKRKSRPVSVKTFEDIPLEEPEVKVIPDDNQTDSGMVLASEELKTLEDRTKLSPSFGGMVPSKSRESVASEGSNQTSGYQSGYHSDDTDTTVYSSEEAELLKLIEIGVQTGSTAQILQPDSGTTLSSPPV

In general, Ki refers to the equilibrium dissociation constant of an inhibitor or competing ligand from its target. Higher therefore signals weaker binding. For orientation: IC50 means the concentration that inhibits the measured activity by half. Turning to `NC(=O)[C@@H]1[C@H](Nc2nc(Nc3cnn(C[C@H](O)CO)c3)ncc2Cl)[C@H]2C=C[C@@H]1C2` [Example 124, (1S,2S,3R,4R)-3-{[5-chloro-2-({1-[(2S)-2,3-dihydroxypropyl]-1H-pyrazol-4-yl}amino)pyrimidin-4-yl]amino}bicyclo[2.2.1]hept-5-ene-2-carboxamide], at Aurora B, the Ki was below 100 nM. Besides, the EC15 in the assay with NCI-H1299 cells is below 100 nM. Moreover, on KDR, the IC50 lay within 100 to 1000 nM.

On Aurora B, `NC(=O)[C@@H]1[C@H](Nc2nc(Nc3cnn(CC4CCO4)c3)ncc2Cl)[C@H]2C=C[C@@H]1C2` (stereo partly drawn) [Example 129, (1S,2S,3R,4R)-3-[(5-chloro-2-{[1-(oxetan-2-ylmethyl)-1H-pyrazol-4-yl]amino}pyrimidin-4-yl)amino]bicyclo[2.2.1]hept-5-ene-2-carboxamide] yielded a Ki below 100 nM. The EC15 with NCI-H1299 cells is below 100 nM. Moreover, the IC50 on KDR was below 100 nM.

On Aurora B, `NC(=O)[C@@H]1[C@H](Nc2nc(Nc3cnn(C[C@@H](O)CO)c3)ncc2Cl)[C@H]2C=C[C@@H]1C2` [Example 130, (1S,2S,3R,4R)-3-{[5-chloro-2-({1-[(2R)-2,3-dihydroxypropyl]-1H-pyrazol-4-yl}amino)pyrimidin-4-yl]amino}bicyclo[2.2.1]hept-5-ene-2-carboxamide] showed an inhibitory constant (Ki) below 100 nM. The EC15 with NCI-H1299 cells is below 100 nM. The IC50 at KDR is 100 to 1000 nM.

For `NC(=O)[C@@H]1[C@H](Nc2nc(Nc3cnn(C[C@H](O)CO)c3)ncc2Br)[C@H]2C=C[C@@H]1C2` [Example 131, (1S,2S,3R,4R)-3-{[5-bromo-2-({1-[(2S)-2,3-dihydroxypropyl]-1H-pyrazol-4-yl}amino)pyrimidin-4-yl]amino}bicyclo[2.2.1]hept-5-ene-2-carboxamide], at Aurora B, the Ki was below 100 nM. Also, the EC15 in the assay on NCI-H1299 cells is below 100 nM. The IC50 on KDR lay in the range of 100 to 1000 nM.

The compound `Cn1cc(Nc2ncc(Br)c(Nc3ccccc3C3(O)CCC3)n2)cn1` [Example 132, 1-[2-({5-bromo-2-[(1-methyl-1H-pyrazol-4-yl)amino]pyrimidin-4-yl}amino)phenyl]cyclobutanol] displayed a Ki on Aurora B below 100 nM. In the assay with NCI-H1299 cells, the EC15 is 100 to 1000 nM. Also, the IC50 on KDR is 100 to 1000 nM.

In turn, `Cc1nn(C)cc1Nc1ncc(Cl)c(N[C@H]2[C@@H](C(N)=O)[C@@H]3C=C[C@H]2C3)n1` [Example 134, (1S,2S,3R,4R)-3-({5-chloro-2-[(1,3-dimethyl-1H-pyrazol-4-yl)amino]pyrimidin-4-yl}amino)bicyclo[2.2.1]hept-5-ene-2-carboxamide] had an inhibitory constant (Ki) on Aurora B below 100 nM. Also, the EC15 with NCI-H1299 cells was below 100 nM. The IC50 at KDR was 100 to 1000 nM.

Compound `Cc1nn(C)cc1Nc1ncc(Br)c(N[C@H]2[C@@H](C(N)=O)[C@@H]3C=C[C@H]2C3)n1` [Example 135, (1S,2S,3R,4R)-3-({5-bromo-2-[(1,3-dimethyl-1H-pyrazol-4-yl)amino]pyrimidin-4-yl}amino)bicyclo[2.2.1]hept-5-ene-2-carboxamide] had a Ki on Aurora B below 100 nM. The EC15 in the assay with NCI-H1299 cells was below 100 nM. Further, the IC50 at KDR was below 100 nM.

Consider `Cn1cc(Nc2ncc([N+](=O)[O-])c(N[C@H]3[C@@H](C(N)=O)[C@@H]4C=C[C@H]3C4)n2)cn1` [Example 139, (1S,2S,3R,4R)-3-({2-[(1-methyl-1H-pyrazol-4-yl)amino]-5-nitropyrimidin-4-yl}amino)bicyclo[2.2.1]hept-5-ene-2-carboxamide], for which, on Aurora B, the Ki is below 100 nM. Also, the EC15 in the assay on NCI-H1299 cells was below 100 nM. At KDR, the IC50 fell in the range of 100 to 1000 nM.

As for `CCn1cc(Nc2ncc([N+](=O)[O-])c(N[C@H]3[C@@H](C(N)=O)[C@@H]4C=C[C@H]3C4)n2)cn1` [Example 140, (1S,2S,3R,4R)-3-({2-[(1-ethyl-1H-pyrazol-4-yl)amino]-5-nitropyrimidin-4-yl}amino)bicyclo[2.2.1]hept-5-ene-2-carboxamide], the Ki at Aurora B is below 100 nM. Further, the EC15 in the assay with NCI-H1299 cells was below 100 nM. The IC50 on KDR fell in the range of 100 to 1000 nM.

`NC(=O)[C@@H]1[C@H](Nc2nc(Nc3cnn(CCc4ccccc4)c3)ncc2Cl)[C@H]2C=C[C@@H]1C2` [Example 143, (1S,2S,3R,4R)-3-[(5-chloro-2-{[1-(2-phenylethyl)-1H-pyrazol-4-yl]amino}pyrimidin-4-yl)amino]bicyclo[2.2.1]hept-5-ene-2-carboxamide] registered a Ki on Aurora B below 100 nM. Besides, the EC15 with NCI-H1299 cells was below 100 nM. Also, the IC50 on KDR is below 100 nM.

Regarding `NC(=O)[C@@H]1[C@H](Nc2nc(Nc3cnn(Cc4ccccc4)c3)ncc2Cl)[C@H]2C=C[C@@H]1C2` [Example 144, (1S,2S,3R,4R)-3-({2-[(1-benzyl-1H-pyrazol-4-yl)amino]-5-chloropyrimidin-4-yl}amino)bicyclo[2.2.1]hept-5-ene-2-carboxamide], the Ki on Aurora B is below 100 nM. For the same compound, the EC15 in the assay on NCI-H1299 cells was below 100 nM. Moreover, on KDR, the IC50 is below 100 nM.

In the case of `NC(=O)[C@@H]1[C@H](Nc2nc(Nc3cnn(CCc4ccccc4)c3)ncc2Br)[C@H]2C=C[C@@H]1C2` [Example 148, (1S,2S,3R,4R)-3-[(5-bromo-2-{[1-(2-phenylethyl)-1H-pyrazol-4-yl]amino}pyrimidin-4-yl)amino]bicyclo[2.2.1]hept-5-ene-2-carboxamide], the Ki at Aurora B is below 100 nM. Moreover, the EC15 in the assay with NCI-H1299 cells was below 100 nM. The 50% inhibitory concentration (IC50) at KDR is below 100 nM.

In turn, `NC(=O)[C@@H]1[C@H](Nc2nc(Nc3cnn(Cc4ccccc4)c3)ncc2Br)[C@H]2C=C[C@@H]1C2` [Example 149, (1S,2S,3R,4R)-3-({2-[(1-benzyl-1H-pyrazol-4-yl)amino]-5-bromopyrimidin-4-yl}amino)bicyclo[2.2.1]hept-5-ene-2-carboxamide] showed a Ki at Aurora B below 100 nM. Besides, the EC15 with NCI-H1299 cells is below 100 nM. The IC50 at KDR was below 100 nM.

With `Cn1cc(Nc2ncc(C(F)(F)F)c(Nc3ccsc3C(N)=O)n2)cn1` [Example 150, 3-({2-[(1-methyl-1H-pyrazol-4-yl)amino]-5-(trifluoromethyl)pyrimidin-4-yl}amino)thiophene-2-carboxamide], the Ki on Aurora B was below 100 nM. In the assay on NCI-H1299 cells, the EC15 is below 100 nM. Also, the IC50 on KDR is 100 to 1000 nM.

For `COc1cccc(CCn2cc(Nc3ncc(Cl)c(N[C@H]4[C@@H](C(N)=O)[C@@H]5C=C[C@H]4C5)n3)cn2)c1` [Example 154, (1S,2S,3R,4R)-3-{[5-chloro-2-({1-[2-(3-methoxyphenyl)ethyl]-1H-pyrazol-4-yl}amino)pyrimidin-4-yl]amino}bicyclo[2.2.1]hept-5-ene-2-carboxamide], the Ki on Aurora B was below 100 nM. In the assay with NCI-H1299 cells, the EC15 was below 100 nM. Further, the IC50 at KDR was 100 to 1000 nM.

On Aurora B, `COc1cccc(Cn2cc(Nc3ncc(Cl)c(N[C@H]4[C@@H](C(N)=O)[C@@H]5C=C[C@H]4C5)n3)cn2)c1` [Example 155, (1S,2S,3R,4R)-3-[(5-chloro-2-{[1-(3-methoxybenzyl)-1H-pyrazol-4-yl]amino}pyrimidin-4-yl)amino]bicyclo[2.2.1]hept-5-ene-2-carboxamide] had a Ki below 100 nM. The EC15 in the assay on NCI-H1299 cells was below 100 nM. At KDR, the IC50 was below 100 nM.

For `NC(=O)[C@@H]1[C@H](Nc2nc(Nc3cnn(Cc4cccc(Cl)c4)c3)ncc2Cl)[C@H]2C=C[C@@H]1C2` [Example 157, (1S,2S,3R,4R)-3-[(5-chloro-2-{[1-(3-chlorobenzyl)-1H-pyrazol-4-yl]amino}pyrimidin-4-yl)amino]bicyclo[2.2.1]hept-5-ene-2-carboxamide], the Ki at Aurora B is below 100 nM. Besides, the EC15 in the assay with NCI-H1299 cells is below 100 nM. The IC50 on KDR is below 100 nM.

The compound `NC(=O)[C@@H]1[C@H](Nc2nc(Nc3cnn(CCc4cccc(Cl)c4)c3)ncc2Cl)[C@H]2C=C[C@@H]1C2` [Example 158, (1S,2S,3R,4R)-3-{[5-chloro-2-({1-[2-(3-chlorophenyl)ethyl]-1H-pyrazol-4-yl}amino)pyrimidin-4-yl]amino}bicyclo[2.2.1]hept-5-ene-2-carboxamide] returned a Ki at Aurora B below 100 nM. The EC15 with NCI-H1299 cells is below 100 nM. The IC50 on KDR fell in the range of 100 to 1000 nM.

At Aurora B, `COc1cccc(Cn2cc(Nc3ncc(Br)c(N[C@H]4[C@@H](C(N)=O)[C@@H]5C=C[C@H]4C5)n3)cn2)c1` [Example 159, (1S,2S,3R,4R)-3-[(5-bromo-2-{[1-(3-methoxybenzyl)-1H-pyrazol-4-yl]amino}pyrimidin-4-yl)amino]bicyclo[2.2.1]hept-5-ene-2-carboxamide] gave a Ki below 100 nM. For the same compound, the EC15 in the assay with NCI-H1299 cells is below 100 nM. Further, at KDR, the IC50 was below 100 nM.

In the case of `COc1cccc(CCn2cc(Nc3ncc(Br)c(N[C@H]4[C@@H](C(N)=O)[C@@H]5C=C[C@H]4C5)n3)cn2)c1` [Example 160, (1S,2S,3R,4R)-3-{[5-bromo-2-({1-[2-(3-methoxyphenyl)ethyl]-1H-pyrazol-4-yl}amino)pyrimidin-4-yl]amino}bicyclo[2.2.1]hept-5-ene-2-carboxamide], on Aurora B, the Ki is below 100 nM. For the same compound, in the assay on NCI-H1299 cells, the EC15 is below 100 nM. For the same compound, on KDR, the IC50 is below 100 nM.

In turn, `NC(=O)[C@@H]1[C@H](Nc2nc(Nc3cnn(Cc4ccccc4Cl)c3)ncc2Cl)[C@H]2C=C[C@@H]1C2` [Example 161, (1S,2S,3R,4R)-3-[(5-chloro-2-{[1-(2-chlorobenzyl)-1H-pyrazol-4-yl]amino}pyrimidin-4-yl)amino]bicyclo[2.2.1]hept-5-ene-2-carboxamide] showed a Ki on Aurora B below 100 nM. Moreover, the EC15 with NCI-H1299 cells was below 100 nM. The IC50 at KDR was below 100 nM.
